Test results taken from publication doi:10.1101/2025.11.03.686257v1 (bioRxiv, 2025).

How the values were obtained:
[1] = Solubility in aqueous solution; format: physicochemical; conditions: stock solutions prepared in PBS at 1mM
[2] = system: RLEC-like S3 cells; assay: Peptide-Dylight488 streptavidin cell binding assay by flow cytometry; format: cell-based, rat; conditions: peptide-Dylight488 streptavidin complexes, established line
[3] = system: HepaRG-SP cells; assay: as above; format: cell-based, human; conditions: P11^Chol-Dylight488 streptavidin complexes
[4] = system: Huh7 HCC cell line; assay: as above; format: cell-based, human; conditions: peptide-Dylight488 streptavidin complexes
[5] = system: bipotent progenitor HepaRG cells 3 days after plating; assay: as above; format: cell-based, human; conditions: P11^Chol-Dylight488 streptavidin complexes
[6] = system: Hepa1-6 HCC cell line; assay: as above; format: cell-based, murine; conditions: peptide-Dylight488 streptavidin complexes
[7] = system: normal human hepatocytes in primary culture; assay: as above; format: cell-based; conditions: peptide-Dylight488 streptavidin complexes
[8] = system: hepatic stellar-like LX2 cells; assay: as above; format: cell-based, human; conditions: peptide-Dylight488 streptavidin complexes
[9] = system: HEK293T cells; assay: as above; format: cell-based, human; conditions: peptide-Dylight488 streptavidin complexes
[10] = system: HepG2 cells; assay: as above; format: cell-based, human; conditions: peptide-Dylight488 streptavidin complexes
[11] = system: Providencia stuartii; assay: Antibiotic resistance characterization of clinical isolate; format: cell-based; conditions: University Hospital Pontchaillou

Row | Compound | binding to cells [2] | binding to cells [4] | binding to cells [6] | binding to cells [7] | binding to cells [8] | antibiotic resistance/sensitivity of the strain [11] | further results
1 | TFLNSVPTYSYWGGGS [P11^Chol] | bound | no binding | no binding | no binding | no binding | – | solubility in aqueous solution [1]: high solubility; percentage of positive cells [3]: less than 1%; increase in fluorescence intensity, HepaRG D3 versus HepaRG-SP cells [5]: 4 fold; percentage of positive cells ([5]; HepaRG D3): ~18%
2 | EYLNSILSYSPSYYWI [E-select] | – | – | – | – | – | – | binding to cells [9]: significant binding; binding to cells [10]: significant binding
3 | GTLNNIPTY-YWGKGY [Provid-Stu] | bound | no binding | no binding | no binding | no binding | – | –
4 | AFLNSNGLPTYSPKIS [Hel-Pyl] | bound | no binding | no binding | no binding | no binding | – | –
5 | CC[C@H]1OC(=O)[C@H](C)[C@@H](O[C@H]2C[C@@](C)(OC)[C@@H](O)[C@H](C)O2)[C@H](C)[C@@H](O[C@@H]2O[C@H](C)C[C@H](N(C)C)[C@H]2O)[C@](C)(O)C[C@@H](C)C(=O)[C@H](C)[C@@H](O)[C@]1(C)O [erythromycin] | – | – | – | – | – | resistant | –
6 | CC1(C)S[C@@H]2[C@H](NC(=O)[C@H](N)c3ccccc3)C(=O)N2[C@H]1C(=O)O [ampicillin] | – | – | – | – | – | resistant | –
7 | gentamycin | – | – | – | – | – | sensitive | –
8 | amoxicillin + clavulanic acid | – | – | – | – | – | resistant | –
9 | NC[C@H]1O[C@H](O[C@H]2[C@H](O)[C@@H](O[C@H]3O[C@H](CO)[C@@H](O)[C@H](N)[C@H]3O)[C@H](N)C[C@@H]2N)[C@H](O)[C@@H](O)[C@@H]1O [kanamycin] | – | – | – | – | – | sensitive | –
10 | O=C(N[C@H](CO)[C@H](O)c1ccc([N+](=O)[O-])cc1)C(Cl)Cl [chloramphenicol] | – | – | – | – | – | sensitive | –
